Literature values, collected in PMC6458983 (Cancer Chemotherapy and Pharmacology, 2019).

Details: cited from earlier work

C#Cc1cccc(Nc2ncnc3cc(OCCOC)c(OCCOC)cc23)c1 [erlotinib]
trough plasma concentration (patient case study, at the time of ILD diagnosis): elevated
median trough concentrations versus patients without ILD (three patients at the time of suspected ILD): approximately three times higher
